Data on 4 molecules can be found in article PMC7181641, “Aspartate aminotransferase Rv3722c governs aspartate-dependent nitrogen metabolism in Mycobacterium tuberculosis” (Nature Communications, 2020).

In assay [1] the target is T1, Rv3722c (Mycobacterium tuberculosis, UniProt O69689).
Assay [2] has as its target T1, Rv3722c. This is another data set of the same source.

T1 sequence (O69689 whole entry): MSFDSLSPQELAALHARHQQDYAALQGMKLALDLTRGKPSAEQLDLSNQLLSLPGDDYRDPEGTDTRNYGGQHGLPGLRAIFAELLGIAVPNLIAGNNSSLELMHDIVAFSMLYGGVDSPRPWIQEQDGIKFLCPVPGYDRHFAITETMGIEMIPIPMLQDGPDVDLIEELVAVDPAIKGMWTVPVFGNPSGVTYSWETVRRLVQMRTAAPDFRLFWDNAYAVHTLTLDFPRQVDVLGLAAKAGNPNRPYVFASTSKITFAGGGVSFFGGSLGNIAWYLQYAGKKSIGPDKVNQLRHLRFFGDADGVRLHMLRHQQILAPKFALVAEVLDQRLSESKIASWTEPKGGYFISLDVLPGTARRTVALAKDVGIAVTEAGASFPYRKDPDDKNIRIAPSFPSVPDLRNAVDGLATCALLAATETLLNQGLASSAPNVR

Consider `Nc1ccccc1C(=O)C[C@H](N)C(=O)O` [kynurenine], for which the “X-ray crystal structure, 2.23 Å” value in assay [1] is “chains were bound to either the external aldimine intermediate PLP-kynurenine (PLP-Kyn)”.

Consider `Cc1ncc(COP(=O)(O)O)c(C=O)c1O` [pyridoxal phosphate], for which the “X-ray crystal structure, 2.23 Å” value in assay [1] is listed as “the external aldimine intermediate PLP-kynurenine (PLP-Kyn)”.

On to `N[C@@H](CCC(=O)O)C(=O)O` [Glu], for which the “X-ray crystal structure, 2.6 Å” value in assay [2] is on record as “clear electron density of the amino acid in the active site”.

`O=C(O)c1cc(O)c2ccccc2n1` [kynurenic acid]: the “X-ray crystal structure, 2.23 Å” value in assay [1] is listed as “or the final keto acid product kynurenic acid (Kyna)”.
